Columns and labels:
Test in all cases: relative viability (nuclei count vs DMSO), 5 days (fraction); higher = more cells survive
[1] = system: ABC-1
How it was run: (§1)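 Cells from lung cancer lines were seeded into 1536-well plates and, one day later, dosed by pin tool. Treatments were either a single drug or a fixed dose of an anchor drug with five library-drug doses (not always all listed) in √10 steps. After 5 days, nuclei were stained in a one-step fixation (final 0.05% Triton X-100, 1% formaldehyde, 1 ug/ml Hoechst) and counted on 4× images, and relative viability is the treated-to-vehicle nuclei ratio, as the median of duplicate plates.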

[2] = system: ChaGo-K-1
How it was run: as §1

[3] = system: HCC-44
How it was run: as §1

[4] = system: HCC-827
How it was run: as §1

[5] = system: LCLC-103H
How it was run: as §1

[6] = system: LU99A
How it was run: as §1

[7] = system: LXF-289
How it was run: as §1

[8] = system: NCI-H1395
How it was run: as §1

[9] = system: NCI-H1666
How it was run: as §1

[10] = system: NCI-H1755
How it was run: as §1

[11] = system: NCI-H1792
How it was run: as §1

[12] = system: NCI-H1793
How it was run: as §1

[13] = system: NCI-H1944
How it was run: as §1

[14] = system: NCI-H2126
How it was run: as §1

[15] = system: NCI-H2347
How it was run: as §1

[16] = system: NCI-H3122
How it was run: as §1

[17] = system: NCI-H322M
How it was run: as §1

[18] = system: NCI-H358
How it was run: as §1

[19] = system: NCI-H520
How it was run: as §1

[20] = system: RERF-LC-KJ
How it was run: as §1

[21] = system: SK-LU-1
How it was run: as §1

## Cc1csc(=NC2CCCCC2)n1/N=C/c1ccc(O)c(O)c1O [MIM1] + Nc1ncn([C@H]2C[C@H](O)[C@@H](CO)O2)c(=O)n1 [Decitabine] (partner 2 µM)
[1]; first compound 0.2 µM
  relative viability: 0.974
[1]; first compound 0.6325 µM
  relative viability: 1.28
[1]; first compound 2 µM
  relative viability: 1.14
[1]; first compound 6.325 µM
  relative viability: 0.944
[1]; first compound 20 µM
  relative viability: 0.427
[2]; first compound 0.2 µM
  relative viability: 0.542
[2]; first compound 0.6325 µM
  relative viability: 0.527
[2]; first compound 2 µM
  relative viability: 0.544
[2]; first compound 6.325 µM
  relative viability: 0.459
[2]; first compound 20 µM
  relative viability: 0.18
[3]; first compound 0.2 µM
  relative viability: 0.905
[3]; first compound 0.6325 µM
  relative viability: 0.85
[3]; first compound 2 µM
  relative viability: 0.866
[3]; first compound 6.325 µM
  relative viability: 0.479
[3]; first compound 20 µM
  relative viability: 0.405
[4]; first compound 0.2 µM
  relative viability: 0.331
[4]; first compound 0.6325 µM
  relative viability: 0.334
[4]; first compound 2 µM
  relative viability: 0.305
[4]; first compound 6.325 µM
  relative viability: 0.292
[4]; first compound 20 µM
  relative viability: 0.175
[5]; first compound 0.2 µM
  relative viability: 0.773
[5]; first compound 0.6325 µM
  relative viability: 0.778
[5]; first compound 2 µM
  relative viability: 0.808
[5]; first compound 6.325 µM
  relative viability: 0.666
[5]; first compound 20 µM
  relative viability: 0.367
[6]; first compound 0.2 µM
  relative viability: 0.87
[6]; first compound 0.6325 µM
  relative viability: 0.845
[6]; first compound 2 µM
  relative viability: 0.927
[6]; first compound 6.325 µM
  relative viability: 0.889
[6]; first compound 20 µM
  relative viability: 0.393
[7]; first compound 0.2 µM
  relative viability: 0.399
[7]; first compound 0.6325 µM
  relative viability: 0.368
[7]; first compound 2 µM
  relative viability: 0.394
[7]; first compound 6.325 µM
  relative viability: 0.328
[7]; first compound 20 µM
  relative viability: 0.253
[8]; first compound 0.2 µM
  relative viability: 0.708
[8]; first compound 0.6325 µM
  relative viability: 0.793
[8]; first compound 2 µM
  relative viability: 0.646
[8]; first compound 6.325 µM
  relative viability: 0.688
[8]; first compound 20 µM
  relative viability: 0.427
[9]; first compound 0.2 µM
  relative viability: 0.714
[9]; first compound 0.6325 µM
  relative viability: 0.741
[9]; first compound 2 µM
  relative viability: 0.665
[9]; first compound 6.325 µM
  relative viability: 0.734
[9]; first compound 20 µM
  relative viability: 0.467
[10]; first compound 0.2 µM
  relative viability: 0.724
[10]; first compound 0.6325 µM
  relative viability: 0.694
[10]; first compound 2 µM
  relative viability: 0.727
[10]; first compound 6.325 µM
  relative viability: 0.657
[10]; first compound 20 µM
  relative viability: 0.549
[11]; first compound 0.2 µM
  relative viability: 0.574
[11]; first compound 0.6325 µM
  relative viability: 0.497
[11]; first compound 2 µM
  relative viability: 0.611
[11]; first compound 6.325 µM
  relative viability: 0.439
[11]; first compound 20 µM
  relative viability: 0.411
[12]; first compound 0.2 µM
  relative viability: 0.507
[12]; first compound 2 µM
  relative viability: 0.518
[12]; first compound 6.325 µM
  relative viability: 0.479
[12]; first compound 20 µM
  relative viability: 0.495
[13]; first compound 0.2 µM
  relative viability: 0.399
[13]; first compound 0.6325 µM
  relative viability: 0.467
[13]; first compound 2 µM
  relative viability: 0.403
[13]; first compound 6.325 µM
  relative viability: 0.412
[13]; first compound 20 µM
  relative viability: 0.355
[14]; first compound 0.2 µM
  relative viability: 0.659
[14]; first compound 0.6325 µM
  relative viability: 0.628
[14]; first compound 2 µM
  relative viability: 0.545
[14]; first compound 6.325 µM
  relative viability: 0.584
[14]; first compound 20 µM
  relative viability: 0.488
[15]; first compound 0.2 µM
  relative viability: 0.592
[15]; first compound 0.6325 µM
  relative viability: 0.592
[15]; first compound 2 µM
  relative viability: 0.64
[15]; first compound 6.325 µM
  relative viability: 0.574
[15]; first compound 20 µM
  relative viability: 0.527
[16]; first compound 0.2 µM
  relative viability: 0.449
[16]; first compound 0.6325 µM
  relative viability: 0.507
[16]; first compound 2 µM
  relative viability: 0.487
[16]; first compound 6.325 µM
  relative viability: 0.407
[16]; first compound 20 µM
  relative viability: 0.411
[17]; first compound 0.2 µM
  relative viability: 0.622
[17]; first compound 0.6325 µM
  relative viability: 0.74
[17]; first compound 2 µM
  relative viability: 0.736
[17]; first compound 6.325 µM
  relative viability: 0.642
[17]; first compound 20 µM
  relative viability: 0.653
[18]; first compound 0.2 µM
  relative viability: 0.212
[18]; first compound 0.6325 µM
  relative viability: 0.224
[18]; first compound 2 µM
  relative viability: 0.216
[18]; first compound 6.325 µM
  relative viability: 0.148
[18]; first compound 20 µM
  relative viability: 0.119
[19]; first compound 0.2 µM
  relative viability: 0.574
[19]; first compound 0.6325 µM
  relative viability: 0.485
[19]; first compound 2 µM
  relative viability: 0.526
[19]; first compound 6.325 µM
  relative viability: 0.43
[19]; first compound 20 µM
  relative viability: 0.284
[20]; first compound 0.2 µM
  relative viability: 0.624
[20]; first compound 0.6325 µM
  relative viability: 0.652
[20]; first compound 2 µM
  relative viability: 0.377
[20]; first compound 6.325 µM
  relative viability: 0.301
[20]; first compound 20 µM
  relative viability: 0.22
[21]; first compound 0.2 µM
  relative viability: 0.686
[21]; first compound 0.6325 µM
  relative viability: 0.727
[21]; first compound 2 µM
  relative viability: 0.708
[21]; first compound 6.325 µM
  relative viability: 0.65
[21]; first compound 20 µM
  relative viability: 0.351

From the supplement of paper PMC10307832
